Values joined by “and” are separate entries in the source; they are usually repeats but may differ in a detail not shown here. Equal entries are not always repeated. Where two headings read alike, the source gives them in different places.
Tests used:
HIV-1 RT [1] = test: Amp-RT assay, AZT-TP and other NRTI-TPs, reference viruses; assay type: biochemical
plasma HIV-1 RT = plasma HIV-1 RT (Human immunodeficiency virus type 1, UniProt P04585); conditions: 50 μM nevirapine
Description: (§1) For culture supernatant, 10 μl were used directly in the Amp-RT assay. For plasma testing, a volume of 100 μl was clarified by centrifugation at 10,000 g for five minutes and then ultracentrifuged at a fixed angle at 99,000 g for 1 hour at 4° C. The viral pellet was resuspended in 100 μl of RT buffer (50 mM Tris-HCl, 50 mM KCl, 10 mM MgCl2). Ten microliter aliquots of virus pellets were applied to an RT buffer containing 10 ng of EMCV RNA template, 10 units of RNasin, 0.6% NP-40, 100 ng of the 5′-biotin-labeled EMCR2 antisense primer, 1 nM EGTA, 2 mM dithiothreitol, 50 mM Tris-HCl, 50 mM KCl, 10 mM MgCl2, and 400 uM of each dNTP. Reactions were incubated at 37° C. for 2 hours and then heated at 95° C. for five minutes to destroy RT activity. […] The conditions for PCR were 35 cycles at 95° C. for one minute, 55° C. for one minute, and 72° C. for one minute.
(§2) For quantitation of RT levels, a standard curve was generated by using known RT units from a reference HIV-1 stock (Virology Quality Assurance Laboratory, Rush-Presbyterian-St. Luke's Medical Center, Chicago, Ill.). […] All samples were tested within the linear range of the Amp-RT assay (from 10^−6 to 10^−10 units of RT activity). Samples which had levels of RT activity above the linear range of the assay, were further diluted in RT buffer and retested again. The minimum detectable level of HIV-1 RT activity by the Amp-RT in plasma is 10^−10 units, the equivalent of 1 HIV-1 particle of the reference virus used for quantitation. The results of Amp-RT signals were expressed as units of RT activity per milliliter of plasma and reflect the average of duplicate results.

HIV-1 isolates = conditions: read-out: IC50 Culture, cited from earlier work
HIV-1 RT [2] = molecular target: HIV-1 RT (Human immunodeficiency virus type 1 group M subtype B, UniProt P04585, M628L/L661V/V693A/T802Y); conditions: 50 μM; HIV-1RTMDR1/MT-2 (74V/41L/106A/215Y)
Description: as §1, §2

HIV-1 RT [3] = tested on: HIV-1 RT
Description: as §1, §2

[4] = MNR HIV-1SUM12 (F77L, F116Y, Q151M)
[5] = MNR HIV-1SUM13 (A62V, V75I, F77L, F116Y, Q151M)

## Nc1ccn([C@H]2CC[C@@H](COP(=O)(O)OP(=O)(O)OP(=O)(O)O)O2)c(=O)n1 [ddC-TP, ddC-triphosphate]
HIV-1 RT [1]; MNR HIV-1SUM8 (Q151M)
  IC50: 1800 nM
  fold resistance (IC50) as compared to the mean IC values of WT HIV-1: (3.6) fold
HIV-1 RT [1]; [4]
  IC50: 6000 nM
  fold resistance (IC50) as compared to the mean IC values of WT HIV-1: (12) fold
HIV-1 RT [1]; [5]
  IC50: 7500 nM
  fold resistance (IC50) as compared to the mean IC values of WT HIV-1: (15) fold
HIV-1 RT [1]; WT HIV-1LAI
  IC50: 500 nM
HIV-1 RT [1]; WT HIV-1SUM9
  IC50: 500 nM

## Nc1ncnc2c1ncn2[C@H]1CC[C@@H](COP(=O)(O)OP(=O)(O)OP(=O)(O)O)O1 [ddA-TP]
HIV-1 RT [1]; MNR HIV-1SUM8 (Q151M)
  IC50: 1200 nM
  fold resistance (IC50) as compared to the mean IC values of WT HIV-1: (6.5) fold
HIV-1 RT [1]; [4]
  IC50: 1100 nM
  fold resistance (IC50) as compared to the mean IC values of WT HIV-1: (5.9) fold
HIV-1 RT [1]; [5]
  IC50: 6000 nM
  fold resistance (IC50) as compared to the mean IC values of WT HIV-1: (32.4) fold
HIV-1 RT [1]; WT HIV-1SUM9
  IC50: 270 nM
HIV-1 RT [1]; WT HIV-1xxBRUpitt
  IC50: 100 nM

## Cc1cn([C@H]2C=C[C@@H](COP(=O)(O)OP(=O)(O)OP(=O)(O)O)O2)c(=O)[nH]c1=O [d4T-TP]
HIV-1 RT [1]; MNR HIV-1SUM8 (Q151M)
  IC50: 320 nM
  fold resistance (IC50) as compared to the mean IC values of WT HIV-1: (9.1) fold
HIV-1 RT [1]; [4]
  IC50: 370 nM
  fold resistance (IC50) as compared to the mean IC values of WT HIV-1: (10.6) fold
HIV-1 RT [1]; [5]
  IC50: 370 nM
  fold resistance (IC50) as compared to the mean IC values of WT HIV-1: (10.6) fold
HIV-1 RT [1]; WT HIV-1LAI
  IC50: 15 nM
HIV-1 RT [1]; WT HIV-1SUM9
  IC50: 55 nM

## Cc1ccnc2c1NC(=O)c1cccnc1N2C1CC1 [nevirapine]
Plasma HIV-1 RT; patient N06, after 7 days of treatment
  RT inhibition: 100%
Plasma HIV-1 RT; patient N07, day 7 of treatment
  RT inhibition: 24%
Plasma HIV-1 RT; patient N12, after 7 days of treatment
  RT inhibition: 94%
Plasma HIV-1 RT; patient N12, day 14 of treatment
  RT inhibition: 32%
Plasma HIV-1 RT; samples after more than two weeks of treatment
  mean RT inhibition: 13.82%
Plasma HIV-1 RT; samples collected before therapy (n=7)
  mean RT inhibition: 99.3%
Plasma HIV-1 RT; samples of the first six days of treatment (n=14)
  mean RT inhibition: 98.2%
HIV-1 isolates; isolate S469-2/M3 (Y188L)
  IC50: 100000 nM
HIV-1 isolates; isolate X165-6 (no mutations)
  IC50: 70 nM
HIV-1 isolates; isolate X267-1 (no mutations)
  IC50: 40 nM
HIV-1 RT [2]
  Inhibition of RT by Nevirapine: partially inhibited
HIV-1 RT [3]; 50 μM nevirapine, isolate W786-6, 8.3×10^−9 units of RT activity
  inhibition of RT: no significant inhibition
HIV-1 RT [3]; 50 μM nevirapine, isolate W786-6, input 5.6 × 10^−8 units
  Inhibition of RT. (%): 0%
HIV-1 RT [3]; 50 μM nevirapine, isolate X267-1, input 6.9 × 10^−9 units
  Inhibition of RT. (%): complete inhibition and 100%
HIV-1 RT [3]; 50 μM nevirapine, isolate X267-1, input 7.1 × 10^−7 units
  Inhibition of RT. (%): 98.6%
HIV-1 RT [3]; 50 μM nevirapine, isolate X267-1, input 7.1 × 10^−7 units, listed as Nevirapine
  Inhibition of RT. (%): 98.7%
HIV-1 RT [3]; 50 μM nevirapine, isolate X267-1, input 7.2 × 10^−8 units
  Inhibition of RT. (%): complete inhibition and 100%
HIV-1 RT [3]; 50 μM nevirapine, isolate X403-4, input 4.4 × 10^−7 units
  Inhibition of RT. (%): 16%
HIV-1 RT [3]; 50 μM nevirapine, isolates X403-4 and W786-6, high or low input of RT
  inhibition of RT: no significant inhibition
HIV-1 RT [3]; 50 μM nevirapine, line under isolate X403-4, input 4.1 × 10^−7 units
  Inhibition of RT. (%): 0%
HIV-1 RT [3]; 50 μM nevirapine, line under isolate X403-4, input 8.2 × 10^−9 units
  Inhibition of RT. (%): 0%
HIV-1 RT [3]; 50 μM nevirapine, mixture 10% resistant (W786-6) and 90% sensitive (X267-1) viruses
  RT inhibition: 94%
HIV-1 RT [3]; 50 μM nevirapine, mixture containing 25% resistant viruses
  RT inhibition: 80%
HIV-1 RT [3]; 50 μM nevirapine, mixture containing 75% resistant viruses
  RT inhibition: 29%
HIV-1 RT [3]; 50 μM nevirapine, resistant isolates
  inhibition of RT activity: little or no inhibition
HIV-1 RT [3]; 50 μM nevirapine, sensitive isolate X267-1 alone
  RT inhibition: > 99%
HIV-1 RT [3]; 50 μM, HIV-1RTMC/MT-2 (67N/70R/215F/219Q), AZT-resistant
  Inhibition of RT by Nevirapine: 91.8%
HIV-1 RT [3]; 50 μM, HIV-1RTMDR1/MT-2 (74V/41L/106A/215Y)
  Inhibition of RT by Nevirapine: 43%
HIV-1 RT [3]; 50 μM, L6KL5 (103N/75I/77L/116Y/151M)
  Inhibition of RT by Nevirapine: 7%
HIV-1 RT [3]; 50 μM, L6KL5 (103N/75I/77L/116Y/151M), listed as Nevirapine
  Inhibition of RT by Nevirapine: 0%
HIV-1 RT [3]; 50 μM, M184V/Y181CEU (184V/181C)
  Inhibition of RT by Nevirapine: 0%
HIV-1 RT [3]; 50 μM, M184Vpitt (184V), 3TC-resistant
  Inhibition of RT by Nevirapine: 98.8%
HIV-1 RT [3]; 50 μM, N119 (181C)
  Inhibition of RT by Nevirapine: 0%
HIV-1 RT [3]; 50 μM, N119 (181C), listed as Nevirapine
  Inhibition of RT by Nevirapine: 7%
HIV-1 RT [3]; 50 μM, viruses containing mutations associated with AZT or 3TC resistance
  susceptibility to nevirapine: susceptible
HIV-1 RT [3]; isolate W786-6, 5.6 × 10^−8 without nevirapine
  Units of RT activity With 50 μM Nevirapine: 7.7 × 10^−8 Units of RT activity
HIV-1 RT [3]; isolate X267-1, 7.1 × 10^−7 without nevirapine
  Units of RT activity With 50 μM Nevirapine: 9.1 × 10^−9 Units of RT activity
HIV-1 RT [3]; isolate X403-4, 4.4 × 10^−7 without nevirapine
  Units of RT activity With 50 μM Nevirapine: 3.7 × 10^−7 Units of RT activity
HIV-1 RT [3]; line under isolate X403-4, 4.1 × 10^−7 without nevirapine
  Units of RT activity With 50 μM Nevirapine: 5.0 × 10^−7 Units of RT activity
HIV-1 RT [3]; line under isolate X403-4, 8.2 × 10^−9 without nevirapine
  Units of RT activity With 50 μM Nevirapine: 8.4 × 10^−9 Units of RT activity

Reference: US7691572B2, “Method and kit for detecting resistance to antiviral drugs” (priority 1998, dated 2010)
